Where two headings read alike, the source gives them in different places.

Data set [1] has as its system YAP-TEAD transcription complex. Kind of data set: YAP-TEAD reporter gene assay (dual luciferase, stably transfected 293T cells). The settings on record: Homo sapiens, HEK-293T. It is filed as cell-based. Background: In a reporter assay the amount or activity of a reporter protein is the signal.
For data set [2], the target named is T1, Cytochrome Oxidase P450 2D6 (Homo sapiens, UniProt P10635).
T1 construct: a biochemical reaction of prepared liver microsomes supplemented with a redox coenzyme; from tissue; host or cells: liver microsomes
T1 sequence (P10635 whole entry): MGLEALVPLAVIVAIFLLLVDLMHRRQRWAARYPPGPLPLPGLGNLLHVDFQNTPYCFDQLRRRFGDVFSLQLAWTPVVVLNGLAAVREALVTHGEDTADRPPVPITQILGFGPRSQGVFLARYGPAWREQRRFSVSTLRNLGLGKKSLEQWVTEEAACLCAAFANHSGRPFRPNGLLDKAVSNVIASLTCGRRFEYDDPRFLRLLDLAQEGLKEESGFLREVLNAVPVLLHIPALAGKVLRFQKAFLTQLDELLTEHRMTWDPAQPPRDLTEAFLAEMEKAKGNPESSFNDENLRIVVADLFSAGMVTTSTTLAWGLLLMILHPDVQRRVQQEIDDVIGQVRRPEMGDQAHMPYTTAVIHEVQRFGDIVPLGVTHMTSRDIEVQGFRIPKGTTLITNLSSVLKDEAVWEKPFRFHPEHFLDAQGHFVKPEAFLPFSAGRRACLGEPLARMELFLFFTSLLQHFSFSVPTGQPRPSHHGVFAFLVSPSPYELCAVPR
The experiment in a line: Inhibition of cytochrome oxidase P450. The note with it: liver microsomes. It is filed as in vitro ADME. The method, then: Efficacy Experimental Example 5: Inhibition of Cytochrome Oxidase P450
100 mM K-Buffer: 9.5 mL of stock solution A was mixed with 40.5 mL of stock solution B, the total volume was adjusted to […] with ultrapure water, and the buffer was titrated to pH 7.4 with KOH or H3PO4.
The test substance powder was prepared into a stock solution at a certain concentration with DMSO or another organic solvent, which was then further diluted with a suitable organic solvent.
The liver microsomal in vitro incubation system for the CYP450 enzyme metabolism phenotype study was a biochemical reaction of prepared liver microsomes supplemented with a redox coenzyme and an enzyme-specific selective inhibitor under simulated physiological temperature and environment conditions.
The concentration of the parent drug or a metabolite thereof in the incubation solution was determined by LC-MS/MS.
In general terms: Liver microsomes are a subcellular fraction often used to study metabolism.

For data set [3], the system named is NCI-H28 (NF2 wide-type). The experiment in a line: Inhibition of cell proliferation (CellTiter-Lumi). It is filed as cell-based. The note with it: Homo sapiens, 72 h + another 72 h treatment.
For data set [4], the system named is NCI-H2452 (NF2 wide-type). Kind of data set: Inhibition of cell proliferation (CellTiter-Lumi). It is filed as cell-based. The settings on record: Homo sapiens, 72 h + another 72 h treatment.
The nature of data set [5]: in vivo. The note with it: mouse, plasma, po.
Protocol: After adding 5% DMSO, the mixture was vortexed. 15% HS15 was then added, and the mixture was vortexed again. Finally, a 10% aqueous cyclodextrin solution was added, and the resulting mixture was vortexed to prepare the final concentration solution or suspension.
In data set [6] the test system is MSTO-211H cells. The experiment in a line: Pharmacodynamic test, MSTO-211H subcutaneous xenograft. In kind it is in vivo, nude mice (BALB/c nu/nu). The settings on record: MSTO-211H xenograft. The method, then: Healthy female nude mice (BALB/c nu/nu) aged 6-8 weeks were housed in an SPF environment in accordance with animal ethical guidelines. The well-growing 5M MSTO-211H cells were harvested through trypsin digestion, washed in phosphate-buffered saline (PBS), and then resuspended in PBS containing 50% matrigel (BD Biosciences).
Subcutaneous injection was then performed at the dorsolateral sites of the mice, and the tumor volume was measured once every three days thereafter. When the tumor volume reached around 150-200 mm^3, the mice were randomly assigned to different treatment groups. Any one of the compounds described herein was prepared accordingly and administered at an appropriate dose. Finally, the tumor growth in the nude mice was analyzed after 4 to 6 weeks based on the growth of the tumors.

Where [7] appears, read: 293T reporter cells, 24 h of drug treatment, read-out: IC50.

One may read the IC50 as the concentration that inhibits the measured activity by half. `CP(C)(=O)c1ccc2c(c1)c1ccccc1n2-c1ccc(C(F)(F)F)cc1` [Example 1]: the IC50 in data set [1] (24 h) was 39.7 nM; in data set [2], above 10000 nM.

With `CP(C)(=O)c1ccc2c(c1)c1cccnc1n2-c1ccc(C(F)(F)F)cc1` [Example 5], the IC50 is 57.1 nM in data set [1] (setting [7]), above 1250 nM in data set [3] and above 20000 nM in data set [4].

The AUC(0-t) is the area under the concentration-time curve up to a stated or last time point. Take `CP(C)(=O)c1ccc2c(Oc3ccc(C(F)(F)F)cc3)cccc2c1` [Example 7]: in data set [5] (100 mg/kg), the AUC(0-t) was determined as 2830 µM·h. The IC50 in data set [1] (24 h) is 4.09 nM; in data set [2], above 10000 nM. Also, in data set [6] (25mpk QD), the TGI is reported as 25mpk QD TGI = 107.93%.

In data set [5] (200 mg/kg), `Cn1cnc(-c2cc(P(C)(C)=O)cnc2Nc2ccc(C(F)(F)F)cc2)c1` [Example 8] displayed an AUC(0-t) of 2430 µM·h. In addition, the IC50 is 42.4 nM in data set [1] (24 h) and above 10000 nM in data set [2]. In data set [6] (50mpk QD), the TGI is 50mpk QD TGI = 104.28%.

A word on the Cmax: it is the highest concentration seen after dosing. Turning to `CP(C)(=O)c1ccc(Nc2ccc(C(F)(F)F)cc2)c(-c2ccccn2)c1` [Example 10], in data set [5] (200 mg/kg), the AUC(0-t) stood at 3380 µM·h. This compound gave a Cmax in data set [5] (200 mg/kg) of 148 µM. Further, the 50% inhibitory concentration (IC50) is 100 nM in data set [1] (setting [7]), above 1250 nM in data set [3] and above 5000 nM in data set [4].

On to `CP(C)(=O)c1ccc(Nc2ccc(C(F)(F)F)cc2)c(-c2ncccn2)c1` [Example 12], for which the IC50 in data set [1] (setting [7]) was 92.1 nM; in data set [3], above 5000 nM; in data set [4], above 20000 nM.

Compound `Cn1cnc(-c2cc(P(C)(C)=O)ccc2Nc2ccc(C(F)(F)F)cc2)c1` [Example 14] returned an AUC(0-t) in data set [5] (200 mg/kg) of 3140 µM·h. Moreover, the peak level in data set [5] (200 mg/kg) (Cmax) was 141 µM. Also, the IC50 in data set [1] (24 h) was 20.2 nM; in data set [2] it was above 10000 nM. Besides, the figures for the TGI in data set [6] (50mpk QD) and in data set [6] (150mpk QD) were 50mpk QD TGI = 100.43% and 150mpk QD TGI = 118.27%, respectively.

As for `CP(C)(=O)c1cnc(Nc2ccc(C(F)(F)F)cc2)c(-c2cn3c(n2)CCC3)c1` [Example 22], the AUC(0-t) in data set [5] (200 mg/kg) is 2520 µM·h. In addition, the IC50 is 13.6 nM in data set [1] (24 h) and above 10000 nM in data set [2]. Moreover, the TGI in data set [6] (150mpk QD) is recorded as 150mpk QD TGI = 102.62%.

In turn, `Cc1ccc(Oc2ccc(C(F)(F)F)cc2)c2ccc(P(C)(C)=O)cc12` [Example 24] had an IC50 in data set [1] (24 h) of 135 nM.
